Read-outs that look alike come from different tables or passages of the source.
How the values were obtained:
[1] = Exposure (Cmax, AUC) of Compound A in cynomolgus monkeys; assay type: in vivo
Procedure: (§1) Male and female cynomolgus monkeys were assigned to groups and doses of Compound A were administered. Animals were dosed via subcutaneous injection at a volume of 2 mL/kg. The vehicle control article/diluent was phosphate-buffered saline (PBS).
(§2) In Phase II, 3 weekly administrations of 0.3 mg/kg of Compound A were tolerated. The 3 mg/kg dose in naïve animals was not tolerated and led to clinical observations of morbidity or death within 1 day of dosing. The findings were consistent with Compound A-mediated inflammatory response that was considered the probable cause of death.

[2] = test system: B16F10 melanoma cells; assay: B16F10 melanoma tumor model in C57BL6 mice: Compound A with anti-CTLA4 and/or anti-PD-L1 antibody; assay type: in vivo
Procedure: FIG. 2, panels A and B show the effect of a triple combination of Compound A (I.T.), PD-L1 antibody (I.P.), and anti-CTLA4 antibody (I.P.). Groups of C57BL6 mice (n=5) bearing B16F10 tumors were treated as indicated on day 6, 10, and 14 after tumor implantation. […] Data are shown as mean±SEM.
In the same set of experiments, the combination of 0.3 μg of Compound A (I.T.) and 200 μg of anti-PD-L1 antibody (I.P.) was also tested with and without the combination of 200 μg of anti-CTLA4 antibody (I.P.).

[3] = test system: STING pathway; assay: Plasma cytokine and chemokine levels after subcutaneous Compound A in cynomolgus monkeys; assay type: in vivo; conditions: for plasma levels of IL-6: 3 hours and 6 hours postdose; for plasma IFNα levels: male or female
Procedure: as §1
(§3) IFNα, TNFα, and IL-6 levels were measured at 3, 6, and 12 hours post-dosing. Dose related but variable changes were observed. […] IL-6 increases at 3 mg/kg and 10 mg/kg persisted at 12 hours postdose. TNFα levels increased at 3 hours in the 1 mg/kg group. […] The cytokine responses are consistent with the predicted STING pathway activation. Morbidity was observed within 1 day of administration of the 10 mg/kg/dose; as such, 3 mg/kg was selected as the high dose for the following repeat-dose phase (Phase II).
as §2
(§4) A priming dose of 0.1 mg/kg/day was administered 4 days prior to the first dose of 1.0 mg/kg/day Compound A to potentially allow a tolerance to develop to avoid the acute mortality noted during Phase II following administration of 3.0 mg/kg/day of Compound A to naïve animals. […] Increased plasma levels of IL-6 were noted 3 hours and 6 hours postdose.

[4] = Subcutaneous dose escalation and repeat-dose tolerability study of Compound A in cynomolgus monkeys (priming and maintenance doses); assay type: in vivo
Procedure: as §1, §3, §2, §4
Edema is consistent with an inflammatory related pathology and the exaggerated pharmacology of the mode of action of Compound A. Administration of 3 weekly doses of 1.0 mg/kg/day (preceded by a priming dose of 0.1 mg/kg) or 0.6 mg/kg (without a priming dose) was tolerated. Animals tolerated an escalation to 3.0 mg/kg in Phase I, due to previous administrations at lower levels that allowed a tolerance to develop.

[5] = test system: B16F10 melanoma cells; conditions: intratumorally
Procedure: Groups of C57BL6/J mice (n=5) were implanted subcutaneously with B16F10 melanoma cells into the right flank on day 0. On day 6, 9, 12, and 15, mice were treated intratumorally with anti-CTLA4 antibody or DMXAA, or the combination of both anti-CTLA4 antibody and DMXAA. […] Data are shown as mean±SEM.
Female C57BL6 mice at the age of 7-8 weeks were implanted on day 0 with 10^6 of B16F10 melanoma cells (ATCC CRL-6475) subcutaneously on their right flanks. On day 6, tumors were measured and mice were regrouped so that each group (n=5) had similar average tumor volumes (˜120 mm^3). On day 6, 9, 12, 15, mice were treated intratumorally with 50 μg of anti-CTLA4 antibody (BioXcell, BE0614), or 50 μg of DMXAA (Sigma-Aldrich, D5817), or the combination of both the anti-CTLA4 antibody and DMXAA. Mock treated group were injected with PBS intratumorally. Tumor volumes were measured every 2-3 days and mouse survival was monitored daily.

[6] = alone, I.T., day 6, 10, 14: 0.3 μg Compound A or 50 μg anti-CTLA4 antibody
[7] = combination 0.3 μg Compound A (I.T.) with 10 μg anti-CTLA4 antibody (I.T.)
[8] = combination 0.3 μg Compound A (I.T.) with 50 μg anti-CTLA4 antibody (I.T.)
[9] = Phase I dose escalation, subcutaneous injection
[10] = Phase II, 3 mg/kg dose in naïve animals
[11] = alone, day 6, 9, 12, 15: 50 μg anti-CTLA4 antibody or 50 μg DMXAA
[12] = combination 50 μg anti-CTLA4 antibody and 50 μg DMXAA

Q: Which “increase of exposure (mean Cmax, AUC0-2, AUC0-8, AUC0-24) with dose” value ([1]; 0.3 to 3 mg/kg/day, Day 1 of Phase II) does the source give for `Nc1nc2c(ncn2[C@@H]2O[C@@H]3COP(=O)(O)OC4C(O)[C@H](n5cnc6c(N)ncnc65)O[C@@H]4COP(=O)(O)OC2C3OCC(F)(F)F)c(=O)[nH]1` (stereo partly drawn) [Compound A] here?
A: The value was “generally dose-proportional”.

Q: What about the “sex differences in mean Cmax, AUC0-2, AUC0-8, and AUC0-24 values” ([1]; male vs female) of the same molecule?
A: Its value is “less than 2 fold”.

Q: What about the “accumulation after multiple doses” value ([1]; multiple doses of 0.3 mg/kg/day) of the same molecule?
A: The value was “No accumulation”.

Q: What about the mouse survival [2, 6] of the same molecule?
A: Its mouse survival is “extended mouse survival”.

Q: What about the tumor growth [2, 6] of the same molecule?
A: The tumor growth was “reduced tumor growth”.

Q: What about the “mouse survival compared to both agents alone” value [2, 7] of the same molecule?
A: The value was “improved mouse survival”.

Q: And the “tumor growth compared to both agents alone” value [2, 7]?
A: Its value is “further suppressed tumor growth”.

Q: And the “suppression of tumor growth compared to 0.3 μg Compound A (I.T.) with 200 μg anti-CTLA4 antibody (I.P.)” value [2, 8]?
A: Its value is “more effective”.

Q: What about the tumor remission [2, 8] of the same molecule?
A: The tumor remission was “more dramatic tumor remission”.

Q: And the “reduction in tumor growth compared to 0.3 μg Compound A (I.T.) with 50 μg anti-CTLA4 antibody (I.T.)” value ([2]; combination 0.3 μg Compound A (I.T.) with 200 μg anti-CTLA4 antibody (I.P.))?
A: Its value is “inferior”.

Q: What about the “reduction in tumor growth compared to 0.3 μg Compound A (I.T.) with 50 μg anti-CTLA4 antibody (I.T.)” value ([2]; combination 0.3 μg Compound A (I.T.) with 200 μg anti-PD-L1 antibody (I.P.)) of the same molecule?
A: Its value is “inferior”.

Q: And the “anti-tumor effect compared to 200 μg anti-CTLA4 antibody administered systemically” value ([2]; combination intratumoral Compound A with 10 μg anti-CTLA4 antibody (I.T.))?
A: The value was “similar”.

Q: And the “tumor size and overall survival compared to 200 μg anti-CTLA4 antibody administered systemically” value ([2]; combination intratumoral Compound A with 50 μg anti-CTLA4 antibody (I.T.))?
A: The value was “significant benefits”.

Q: And the “effect on tumor growth compared to 0.3 μg Compound A (I.T.) with 50 μg anti-CTLA4 antibody (I.T.)” value ([2]; triple combination 0.3 μg Compound A (I.T.), 200 μg anti-PD-L1 antibody (I.P.), 200 μg anti-CTLA4 antibody (I.P.))?
A: The value was “comparable”.

Q: And the IFNα levels ([3]; Phase I, 1 mg/kg and 3 mg/kg groups, 3 hours and 6 hours post dosing)?
A: The IFNα levels was “Moderate levels”.

Q: And the TNFα levels ([3]; Phase I, 1 mg/kg group, 3 hours)?
A: The TNFα levels was “increased”.

Q: What about the TNFα levels ([3]; Phase I, 3 mg/kg and 10 mg/kg groups) of the same molecule?
A: Its TNFα levels is “Lower levels”.

Q: What about the IFNα levels ([3]; Phase I, 3 mg/kg and 10 mg/kg, 12 hours after dosing) of the same molecule?
A: Its IFNα levels is “decreased 12 hours after dosing, but did not return to pre-dose levels”.

Q: What about the IL-6 increases ([3]; Phase I, 3 mg/kg and 10 mg/kg, 12 hours postdose) of the same molecule?
A: The IL-6 increases was “persisted”.

Q: And the IFNα levels ([3]; Phase I, 10 mg/kg group)?
A: The IFNα levels was “Higher levels”.

Q: What about the “plasma IL-6 levels” value ([3]; Phase I, all groups, 3 and 6 hours post dosing) of the same molecule?
A: The value was “Increases”.

Q: And the “IL-12, G-CSF, and IFNγ levels” value ([3]; Phase II)?
A: The value was “sporadic increases”.

Q: And the “changes in pro-inflammatory cytokines and chemokines MCP-1 and IP-10” value ([3]; Phase II)?
A: Its value is “suggestive of an inflammatory response with resolution by 24 hours postdose”.

Q: And the “plasma IL-1ra, IL-6, and IFNα cytokine levels” value ([3]; Phase II, 3 mg/kg dose level, 3 and 6 hours)?
A: The value was “dose-dependent increases”.

Q: And the “plasma levels of IL-6” value ([3]; Phase III, 0.1 mg/kg/day)?
A: Its value is “Increased”.

Q: What about the IP-10 ([3]; Phase III, 0.1 mg/kg/day, 3 hours post dosing, male and female) of the same molecule?
A: Its IP-10 is “Slight elevation”.

Q: What about the “levels of TNFα” value ([3]; Phase III, 0.1 mg/kg/day, 6 hours postdose in male, 3 and 6 hours postdose in female) of the same molecule?
A: Its value is “Elevated levels”.

Q: And the TNFα levels ([3]; Phase III, 0.1 mg/kg/day, 24 hours post dosing)?
A: Its TNFα levels is “returned to non-detectable level”.

Q: And the IL-6 levels ([3]; Phase III, 0.1 mg/kg/day, 24 hours postdose)?
A: Its IL-6 levels is “returned to a non-detectable level”.

Q: And the “plasma IFNα levels” value ([3]; Phase III, 0.1 mg/kg/day)?
A: Its value is “did not cause significant increase”.

Q: What about the “plasma levels of IL-6” value ([3]; Phase III, 0.6 mg/kg/day) of the same molecule?
A: Its value is “Increased”.

Q: What about the “levels of TNFα” value ([3]; Phase III, 0.6 mg/kg/day, 6 hours postdose in male, 1.5, 3, and 6 hours postdose in female) of the same molecule?
A: Its value is “Elevated levels”.

Q: And the “plasma IFNα levels” value ([3]; Phase III, 0.6 mg/kg/day)?
A: Its value is “did not cause significant increase”.

Q: What about the IP-10 ([3]; Phase III, 0.6 mg/kg/day, throughout the time course) of the same molecule?
A: Its IP-10 is “No significant elevation”.

Q: What about the IP-10 level ([3]; Phase III, 1 mg/kg/day, 1.5, 3, and 6 hours postdose) of the same molecule?
A: The IP-10 level was “no increased IP-10 level”.

Q: What about the TNFα levels ([3]; Phase III, 1 mg/kg/day, 1.5, 3, and 6 hours postdose, male and female) of the same molecule?
A: The TNFα levels was “Elevated”.

Q: What about the IFNα levels ([3]; Phase III, 1 mg/kg/day, 1.5 and 3 hours postdose) of the same molecule?
A: Its IFNα levels is “did not cause significant change”.

Q: And the IL-6 levels ([3]; Phase III, 1 mg/kg/day, 3 and 6 hours postdose, male and female)?
A: Its IL-6 levels is “Marked increase”.

Q: And the IFNα levels ([3]; Phase III, 1 mg/kg/day, 6 hours postdose, male and female)?
A: The IFNα levels was “elevated levels”.

Q: What about the tolerability ([4]; 3 weekly doses of 0.6 mg/kg without a priming dose) of the same molecule?
A: The tolerability was “tolerated”.

Q: What about the tolerability ([4]; 3 weekly doses of 1.0 mg/kg/day preceded by a priming dose of 0.1 mg/kg) of the same molecule?
A: Its tolerability is “tolerated”.

Q: What about the “dose level tolerated on escalation” value [4, 9] of the same molecule?
A: Its value is “up to 3.0 mg/kg/dose”.

Q: What about the “findings on escalation up to 3.0 mg/kg/dose” value [4, 9] of the same molecule?
A: The value was “limited to increased body temperature and elevated IFNα, IL-6, and TNFα cytokine levels”.

Q: And the “time to morbidity after administration” value ([4]; Phase I, 10 mg/kg/dose)?
A: The value was ≤ 1 days.

Q: And the “time to morbidity or death after dosing” value [4, 10]?
A: Its value is ≤ 1 days.

Q: What about the tolerability [4, 10] of the same molecule?
A: The tolerability was “not tolerated”.

Q: What about the tolerability ([4]; Phase II, 3 weekly administrations of 0.3 mg/kg) of the same molecule?
A: The tolerability was “tolerated”.

Q: And the survival ([4]; Phase III, three weekly doses of 0.6 or 1.0 mg/kg/day (1.0 preceded by priming dose of 0.1 mg/kg/day))?
A: Its survival is “survived until scheduled sacrifice”.

Q: What about the compound-related findings ([4]; animals administered 0.6 or 1.0 mg/kg/day) of the same molecule?
A: Its compound-related findings is “limited to a transient body temperature increase and mild to moderate clinical and anatomic pathology findings”.

Q: And the “dose not tolerated (acute morbidity and/or death, pulmonary edema)” value ([4]; naïve animals)?
A: The value was ≥ 3.0 mg/kg.

Q: For `Cc1ccc2c(=O)c3cccc(CC(=O)O)c3oc2c1C` [DMXAA], which mice survival [5, 11] is on record?
A: The mice survival was “prolonged survival”.

Q: And the tumor growth [5, 11]?
A: The tumor growth was “greatly suppressed tumor growth”.

Q: And the “controlling tumor growth compared to monotherapy” value [5, 12]?
A: Its value is “significant improved effect”.

Q: And the “extending survival compared to monotherapy” value [5, 12]?
A: Its value is “significant improved effect”.
